{"source": "ChEMBL document CHEMBL2146453", "about": "“Synthesis of novel ursolic acid heterocyclic derivatives with improved abilities of antiproliferation and induction of p53, p21waf1 and NOXA in pancreatic cancer cells” (Bioorg Med Chem, 2012)", "key": {"ASPC1 [1]": {"tested_on": "ASPC1", "assay": "Cell cycle arrest in human AsPC1 cells assessed as G2/M phase cells at 2 uM after 24 hrs by flow cytometric analysis (reference value: 20.7%)", "assay_type": "functional"}, "ASPC1 [2]": {"tested_on": "ASPC1", "assay": "Cell cycle arrest in human AsPC1 cells assessed as G1 phase cells at 6 uM after 24 hrs by flow cytometric analysis (reference value: 25.4%)", "assay_type": "functional"}, "ASPC1 [3]": {"tested_on": "ASPC1", "assay": "Ratio of ursolic acid IC50 to compound IC50 for human AsPC1 cells", "assay_type": "functional"}, "ASPC1 [4]": {"tested_on": "ASPC1", "assay": "Upregulation of NOXA in human AsPC1 cells at 6 to 10 uM after 24 hrs by Western blot analysis", "assay_type": "functional, cell-based"}, "PANC-1": {"tested_on": "PANC-1", "assay": "Cytotoxicity against human PANC1 cells after 72 hrs by MTT assay", "assay_type": "functional, cell-based", "conditions": "PANC-1, 72 h"}, "ASPC1 [5]": {"tested_on": "ASPC1", "assay": "Cell cycle arrest in human AsPC1 cells assessed as G1 phase cells at 2 uM after 24 hrs by flow cytometric analysis (reference value: 25.4%)", "assay_type": "functional"}, "ASPC1 [6]": {"tested_on": "ASPC1", "assay": "Cytotoxicity against human AsPC1 cells after 72 hrs by MTT assay", "assay_type": "functional, cell-based", "conditions": "ASPC1, 72 h"}, "ASPC1 [7]": {"tested_on": "ASPC1", "assay": "Cell cycle arrest in human AsPC1 cells assessed as G1 phase cells at 8 uM after 24 hrs by flow cytometric analysis (reference value: 25.4%)", "assay_type": "functional"}, "ASPC1 [8]": {"tested_on": "ASPC1", "assay": "Cell cycle arrest in human AsPC1 cells assessed as G2/M phase cells at 4 uM after 24 hrs by flow cytometric analysis (reference value: 20.7%)", "assay_type": "functional"}, "HepG2": {"tested_on": "HepG2", "assay": "Cytotoxicity against human HepG2 cells after 72 hrs by MTT assay", "assay_type": "functional, cell-based", "conditions": "HepG2, 72 h"}, "A549": {"tested_on": "A549", "assay": "Cytotoxicity against human A549 cells after 72 hrs by MTT assay", "assay_type": "functional, cell-based", "conditions": "A549, 72 h"}, "ASPC1 [9]": {"tested_on": "ASPC1", "assay": "Cell cycle arrest in human AsPC1 cells assessed as G2/M phase cells at 10 uM after 24 hrs by flow cytometric analysis (reference value: 20.7%)", "assay_type": "functional"}, "ASPC1 [10]": {"tested_on": "ASPC1", "assay": "Induction of apoptosis in human AsPC1 cells assessed as sub-G1 phase cells at 8 uM after 24 hrs by flow cytometric analysis (reference value: 1%)", "assay_type": "functional"}, "ASPC1 [11]": {"tested_on": "ASPC1", "assay": "Cell cycle arrest in human AsPC1 cells assessed as S phase cells at 8 uM after 24 hrs by flow cytometric analysis (reference value: 12.6%)", "assay_type": "functional"}, "ASPC1 [12]": {"tested_on": "ASPC1", "assay": "Cell cycle arrest in human AsPC1 cells assessed as S phase cells at 10 uM after 24 hrs by flow cytometric analysis (reference value: 12.6%)", "assay_type": "functional"}, "MCF7": {"tested_on": "MCF7", "assay": "Cytotoxicity against human MCF7 cells after 72 hrs by MTT assay", "assay_type": "functional, cell-based", "conditions": "MCF7, 72 h"}, "ASPC1 [13]": {"tested_on": "ASPC1", "assay": "Cell cycle arrest in human AsPC1 cells assessed as G2/M phase cells at 6 uM after 24 hrs by flow cytometric analysis (reference value: 20.7%)", "assay_type": "functional"}, "ASPC1 [14]": {"tested_on": "ASPC1", "assay": "Cell cycle arrest in human AsPC1 cells assessed as S phase cells at 6 uM after 24 hrs by flow cytometric analysis (reference value: 12.6%)", "assay_type": "functional"}, "ASPC1 [15]": {"tested_on": "ASPC1", "assay": "Induction of apoptosis in human AsPC1 cells assessed as sub-G1 phase cells at 4 uM after 24 hrs by flow cytometric analysis (reference value: 1%)", "assay_type": "functional"}, "ASPC1 [16]": {"tested_on": "ASPC1", "assay": "Downregulation of Mcl1 in human AsPC1 cells at 2 to 10 uM after 24 hrs by Western blot analysis", "assay_type": "functional, cell-based"}, "ASPC1 [17]": {"tested_on": "ASPC1", "assay": "Induction of apoptosis in human AsPC1 cells assessed as sub-G1 phase cells at 10 uM after 24 hrs by flow cytometric analysis (reference value: 1%)", "assay_type": "functional"}, "ASPC1 [18]": {"tested_on": "ASPC1", "assay": "Cell cycle arrest in human AsPC1 cells assessed as S phase cells at 4 uM after 24 hrs by flow cytometric analysis (reference value: 12.6%)", "assay_type": "functional"}, "ASPC1 [19]": {"tested_on": "ASPC1", "assay": "Upregulation of p21 in human AsPC1 cells at 6 to 10 uM after 24 hrs by Western blot analysis", "assay_type": "functional, cell-based"}, "MIA PaCa-2": {"tested_on": "MIA PaCa-2", "assay": "Cytotoxicity against human MIAPaCa2 cells after 72 hrs by MTT assay", "assay_type": "functional, cell-based", "conditions": "MIA PaCa-2, 72 h"}, "ASPC1 [20]": {"tested_on": "ASPC1", "assay": "Cell cycle arrest in human AsPC1 cells assessed as G1 phase cells at 10 uM after 24 hrs by flow cytometric analysis (reference value: 25.4%)", "assay_type": "functional"}, "ASPC1 [21]": {"tested_on": "ASPC1", "assay": "Induction of apoptosis in human AsPC1 cells assessed as sub-G1 phase cells at 2 uM after 24 hrs by flow cytometric analysis (reference value: 1%)", "assay_type": "functional"}, "ASPC1 [22]": {"tested_on": "ASPC1", "assay": "Cell cycle arrest in human AsPC1 cells assessed as G2/M phase cells at 8 uM after 24 hrs by flow cytometric analysis (reference value: 20.7%)", "assay_type": "functional"}, "ASPC1 [23]": {"tested_on": "ASPC1", "assay": "Induction of apoptosis in human AsPC1 cells assessed as sub-G1 phase cells at 6 uM after 24 hrs by flow cytometric analysis (reference value: 1%)", "assay_type": "functional"}, "ASPC1 [24]": {"tested_on": "ASPC1", "assay": "Cell cycle arrest in human AsPC1 cells assessed as S phase cells at 2 uM after 24 hrs by flow cytometric analysis (reference value: 12.6%)", "assay_type": "functional"}, "ASPC1 [25]": {"tested_on": "ASPC1", "assay": "Upregulation of p53 in human AsPC1 cells at 2 to 10 uM after 24 hrs by Western blot analysis", "assay_type": "functional, cell-based"}, "ASPC1 [26]": {"tested_on": "ASPC1", "assay": "Cell cycle arrest in human AsPC1 cells assessed as G1 phase cells at 4 uM after 24 hrs by flow cytometric analysis (reference value: 25.4%)", "assay_type": "functional"}, "PC-3": {"tested_on": "PC-3", "assay": "Cytotoxicity against human PC3 cells after 72 hrs by MTT assay", "assay_type": "functional, cell-based", "conditions": "PC-3, 72 h"}}, "note": "Active and inactive are the calls of the source. No cut-off for these calls is given here."}
{"smiles": "COC(=O)[C@]12CC[C@@H](C)[C@H](C)[C@H]1C1=CC[C@@H]3[C@@]4(C)C/C(=C/n5cnnc5)C(=O)C(C)(C)[C@@H]4CC[C@@]3(C)[C@]1(C)CC2", "values": [{"measurement": "Activity", "setting": "ASPC1 [1]", "value": 14.9, "unit": "%"}, {"measurement": "Activity", "setting": "ASPC1 [2]", "value": 36.6, "unit": "%"}, {"measurement": "Ratio IC50", "setting": "ASPC1 [3]", "value": 7}, {"measurement": "Activity", "setting": "ASPC1 [4]", "value": "Active"}, {"measurement": "IC50", "setting": "PANC-1", "value": 3.5, "unit": "µM"}, {"measurement": "Activity", "setting": "ASPC1 [5]", "value": 23.9, "unit": "%"}, {"measurement": "IC50", "setting": "ASPC1 [6]", "value": 1.9, "unit": "µM"}, {"measurement": "Activity", "setting": "ASPC1 [7]", "value": 31.9, "unit": "%"}, {"measurement": "Activity", "setting": "ASPC1 [8]", "value": 14.7, "unit": "%"}, {"measurement": "IC50", "setting": "HepG2", "value": 3.2, "unit": "µM"}, {"measurement": "IC50", "setting": "A549", "value": 4.9, "unit": "µM"}, {"measurement": "Activity", "setting": "ASPC1 [9]", "value": 28.8, "unit": "%"}, {"measurement": "Activity", "setting": "ASPC1 [10]", "value": 3.4, "unit": "%"}, {"measurement": "Activity", "setting": "ASPC1 [11]", "value": 10.1, "unit": "%"}, {"measurement": "Activity", "setting": "ASPC1 [12]", "value": 10.5, "unit": "%"}, {"measurement": "IC50", "setting": "MCF7", "value": 2.3, "unit": "µM"}, {"measurement": "Activity", "setting": "ASPC1 [13]", "value": 24.1, "unit": "%"}, {"measurement": "Activity", "setting": "ASPC1 [14]", "value": 9.5, "unit": "%"}, {"measurement": "Activity", "setting": "ASPC1 [15]", "value": 0.5, "unit": "%"}, {"measurement": "Activity", "setting": "ASPC1 [16]", "value": "inactive"}, {"measurement": "Activity", "setting": "ASPC1 [17]", "value": 13.2, "unit": "%"}, {"measurement": "Activity", "setting": "ASPC1 [18]", "value": 9.6, "unit": "%"}, {"measurement": "Activity", "setting": "ASPC1 [19]", "value": "Active"}, {"measurement": "IC50", "setting": "MIA PaCa-2", "value": 4, "unit": "µM"}, {"measurement": "Activity", "setting": "ASPC1 [20]", "value": 27.3, "unit": "%"}, {"measurement": "Activity", "setting": "ASPC1 [21]", "value": 0.7, "unit": "%"}, {"measurement": "Activity", "setting": "ASPC1 [22]", "value": 23.4, "unit": "%"}, {"measurement": "Activity", "setting": "ASPC1 [23]", "value": 1.2, "unit": "%"}, {"measurement": "Activity", "setting": "ASPC1 [24]", "value": 9.1, "unit": "%"}, {"measurement": "Activity", "setting": "ASPC1 [25]", "value": "Active"}, {"measurement": "Activity", "setting": "ASPC1 [26]", "value": 27.9, "unit": "%"}, {"measurement": "IC50", "setting": "PC-3", "value": 3, "unit": "µM"}]}
